# According to ChEMBL document CHEMBL5465560, “Selectivity Literature for EUbOPEN Chemogenomic Library” (2024):
# Legend:
# [1] = molecular target: Serine/threonine-protein kinase pim-2 (Homo sapiens, UniProt Q9P1W9); experiment: Selectivity interaction (KinomeScan (DiscoverX)) EUB0001049a PIM2; conditions: at 1 µM
# [2] = molecular target: T1, Mitogen-activated protein kinase 12 (Homo sapiens) (UniProt P53778); experiment: Selectivity interaction (Millipore kinase profiler) EUB0000124b MAPK12; conditions: at 10 µM
# T1 sequence (whole entry): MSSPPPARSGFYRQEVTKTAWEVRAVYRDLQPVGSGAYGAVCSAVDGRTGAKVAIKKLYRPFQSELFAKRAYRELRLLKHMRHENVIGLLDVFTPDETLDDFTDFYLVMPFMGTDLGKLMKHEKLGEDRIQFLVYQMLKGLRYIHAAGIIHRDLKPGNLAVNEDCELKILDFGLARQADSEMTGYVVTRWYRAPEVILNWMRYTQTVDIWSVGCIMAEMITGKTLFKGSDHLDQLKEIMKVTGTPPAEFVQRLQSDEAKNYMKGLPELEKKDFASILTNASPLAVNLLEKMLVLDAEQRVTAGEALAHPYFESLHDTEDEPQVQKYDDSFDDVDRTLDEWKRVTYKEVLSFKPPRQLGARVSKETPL
# [3] = molecular target: Casein kinase I isoform gamma-3 (Homo sapiens) (UniProt Q9Y6M4); experiment: Selectivity interaction (KinomeScan (DiscoverX)) EUB0001079a CSNK1G3; conditions: at 1 µM
# [4] = molecular target: Ribosomal protein S6 kinase alpha-1 (Homo sapiens, UniProt Q15418); conditions: at 10 µM
# [5] = molecular target: T2, Peripheral plasma membrane protein CASK (Homo sapiens) (UniProt O14936); experiment: Selectivity interaction (Kinase panel (DSF assay)) EUB0001559a CASK
# T2 sequence (whole entry): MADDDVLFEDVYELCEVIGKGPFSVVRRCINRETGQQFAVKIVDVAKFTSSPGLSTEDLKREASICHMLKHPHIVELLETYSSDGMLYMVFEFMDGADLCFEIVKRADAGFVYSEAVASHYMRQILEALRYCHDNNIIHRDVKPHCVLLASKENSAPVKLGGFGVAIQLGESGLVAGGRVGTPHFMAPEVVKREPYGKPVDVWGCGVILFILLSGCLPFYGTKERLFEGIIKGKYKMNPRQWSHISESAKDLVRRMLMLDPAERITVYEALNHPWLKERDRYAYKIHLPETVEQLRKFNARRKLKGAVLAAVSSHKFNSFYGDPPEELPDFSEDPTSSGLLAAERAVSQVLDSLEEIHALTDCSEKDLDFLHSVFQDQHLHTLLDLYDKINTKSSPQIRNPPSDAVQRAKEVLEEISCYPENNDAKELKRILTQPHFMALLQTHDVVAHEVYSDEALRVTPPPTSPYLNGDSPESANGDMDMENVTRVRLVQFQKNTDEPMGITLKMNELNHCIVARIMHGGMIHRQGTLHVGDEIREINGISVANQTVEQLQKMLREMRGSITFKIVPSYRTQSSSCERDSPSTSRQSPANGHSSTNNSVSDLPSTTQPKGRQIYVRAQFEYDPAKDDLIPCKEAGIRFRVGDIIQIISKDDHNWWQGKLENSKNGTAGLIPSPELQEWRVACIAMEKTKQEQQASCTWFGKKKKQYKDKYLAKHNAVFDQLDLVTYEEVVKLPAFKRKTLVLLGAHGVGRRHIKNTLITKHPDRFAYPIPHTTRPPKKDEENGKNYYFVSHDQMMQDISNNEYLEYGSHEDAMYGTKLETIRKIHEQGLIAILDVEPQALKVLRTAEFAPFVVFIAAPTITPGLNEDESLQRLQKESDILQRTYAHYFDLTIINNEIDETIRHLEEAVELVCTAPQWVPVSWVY
# [6] = molecular target: Serine/threonine-protein kinase 25 (Homo sapiens) (UniProt O00506); experiment: Selectivity interaction (Kinase panel (Invitrogen)) EUB0000639a STK25; conditions: at 200 nM
# [7] = molecular target: MAP/microtubule affinity-regulating kinase 3 (Homo sapiens) (UniProt P27448); experiment: Selectivity interaction (KinomeScan (DiscoverX)) EUB0000607a MARK3; conditions: at 10 µM
# [8] = molecular target: T3, Alpha-2A adrenergic receptor (Homo sapiens) (UniProt P08913); experiment: Selectivity interaction (Panel of non-epigenetic targets (kinases, GPCRs, ion channels, and transporters, Eurofins) ) EUB0000271b ADRA2A; conditions: at 1 µM
# T3 sequence (whole entry): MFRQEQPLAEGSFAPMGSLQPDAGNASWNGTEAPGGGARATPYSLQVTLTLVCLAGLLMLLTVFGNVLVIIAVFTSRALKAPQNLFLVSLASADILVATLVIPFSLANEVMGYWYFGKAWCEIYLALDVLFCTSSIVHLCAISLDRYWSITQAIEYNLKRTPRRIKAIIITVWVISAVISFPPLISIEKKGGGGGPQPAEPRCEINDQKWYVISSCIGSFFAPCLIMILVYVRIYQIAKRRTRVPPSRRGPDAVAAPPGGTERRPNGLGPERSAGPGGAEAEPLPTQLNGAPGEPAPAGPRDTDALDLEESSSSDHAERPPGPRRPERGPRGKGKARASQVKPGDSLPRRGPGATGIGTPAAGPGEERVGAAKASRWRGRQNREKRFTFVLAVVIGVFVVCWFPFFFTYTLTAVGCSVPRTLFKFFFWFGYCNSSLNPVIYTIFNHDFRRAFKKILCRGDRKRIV
# [9] = molecular target: Receptor-type tyrosine-protein kinase FLT3 (Homo sapiens) (UniProt P36888); experiment: Selectivity interaction (ProQinase) EUB0000171b FLT3; conditions: at 1 µM
# Chain of Receptor-type tyrosine-protein kinase FLT3 (Homo sapiens) (P36888 whole entry): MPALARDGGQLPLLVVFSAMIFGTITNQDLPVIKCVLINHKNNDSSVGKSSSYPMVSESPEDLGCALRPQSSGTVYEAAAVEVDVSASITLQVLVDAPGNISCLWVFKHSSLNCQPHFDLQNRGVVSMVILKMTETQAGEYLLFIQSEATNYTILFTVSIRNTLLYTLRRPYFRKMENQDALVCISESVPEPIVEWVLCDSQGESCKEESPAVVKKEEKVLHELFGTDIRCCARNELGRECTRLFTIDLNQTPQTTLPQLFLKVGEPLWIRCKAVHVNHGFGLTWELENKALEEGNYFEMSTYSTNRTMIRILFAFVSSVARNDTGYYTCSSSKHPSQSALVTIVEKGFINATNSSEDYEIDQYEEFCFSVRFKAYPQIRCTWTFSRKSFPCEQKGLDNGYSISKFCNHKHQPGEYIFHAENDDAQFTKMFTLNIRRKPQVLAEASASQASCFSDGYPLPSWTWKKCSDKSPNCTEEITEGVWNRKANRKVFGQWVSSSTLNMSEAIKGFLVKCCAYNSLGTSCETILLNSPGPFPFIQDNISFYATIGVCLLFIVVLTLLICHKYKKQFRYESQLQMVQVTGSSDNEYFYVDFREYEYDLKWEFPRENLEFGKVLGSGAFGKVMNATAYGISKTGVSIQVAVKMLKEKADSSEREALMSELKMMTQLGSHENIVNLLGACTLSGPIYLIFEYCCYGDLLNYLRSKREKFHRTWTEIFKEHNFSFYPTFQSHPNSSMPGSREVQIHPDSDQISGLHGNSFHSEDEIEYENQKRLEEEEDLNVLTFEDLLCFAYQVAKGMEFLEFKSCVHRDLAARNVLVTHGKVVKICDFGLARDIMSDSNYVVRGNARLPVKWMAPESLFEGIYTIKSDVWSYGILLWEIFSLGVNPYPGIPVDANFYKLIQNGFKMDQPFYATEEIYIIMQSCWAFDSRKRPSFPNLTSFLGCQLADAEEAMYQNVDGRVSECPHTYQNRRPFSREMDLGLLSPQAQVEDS
# Chain of Serine/threonine-protein kinase 25 (Homo sapiens) (O00506 whole entry, looked up): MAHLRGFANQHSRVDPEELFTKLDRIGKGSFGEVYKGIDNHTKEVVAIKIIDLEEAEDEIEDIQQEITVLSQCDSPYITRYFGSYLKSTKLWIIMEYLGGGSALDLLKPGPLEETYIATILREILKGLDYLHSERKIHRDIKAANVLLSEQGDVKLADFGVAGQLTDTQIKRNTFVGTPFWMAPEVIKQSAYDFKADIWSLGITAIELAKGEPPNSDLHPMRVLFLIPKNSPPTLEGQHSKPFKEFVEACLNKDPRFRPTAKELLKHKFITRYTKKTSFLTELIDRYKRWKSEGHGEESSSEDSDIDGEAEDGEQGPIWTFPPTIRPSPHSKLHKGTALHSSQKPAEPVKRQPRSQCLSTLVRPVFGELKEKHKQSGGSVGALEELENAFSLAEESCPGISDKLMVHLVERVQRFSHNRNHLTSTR
# Chain of MAP/microtubule affinity-regulating kinase 3 (Homo sapiens) (P27448 whole entry, looked up): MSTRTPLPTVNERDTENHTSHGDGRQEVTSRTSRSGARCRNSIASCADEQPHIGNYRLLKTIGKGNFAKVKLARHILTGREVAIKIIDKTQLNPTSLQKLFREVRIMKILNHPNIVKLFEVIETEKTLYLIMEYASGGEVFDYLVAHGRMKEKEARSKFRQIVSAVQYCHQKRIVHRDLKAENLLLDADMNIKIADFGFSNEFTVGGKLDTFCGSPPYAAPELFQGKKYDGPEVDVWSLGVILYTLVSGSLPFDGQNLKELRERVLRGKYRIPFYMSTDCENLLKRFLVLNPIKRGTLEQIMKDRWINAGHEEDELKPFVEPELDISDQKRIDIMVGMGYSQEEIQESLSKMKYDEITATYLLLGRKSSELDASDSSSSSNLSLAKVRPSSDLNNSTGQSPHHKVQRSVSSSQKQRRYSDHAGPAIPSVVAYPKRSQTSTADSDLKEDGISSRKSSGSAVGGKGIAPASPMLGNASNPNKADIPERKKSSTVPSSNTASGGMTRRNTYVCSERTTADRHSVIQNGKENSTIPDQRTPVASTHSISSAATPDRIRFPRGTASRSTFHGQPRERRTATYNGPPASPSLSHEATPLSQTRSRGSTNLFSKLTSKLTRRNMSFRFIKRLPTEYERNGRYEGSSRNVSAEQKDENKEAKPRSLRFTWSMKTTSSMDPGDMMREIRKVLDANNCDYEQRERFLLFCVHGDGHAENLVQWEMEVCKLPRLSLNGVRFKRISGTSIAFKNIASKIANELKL
# Chain of Serine/threonine-protein kinase pim-2 (Q9P1W9 whole entry, looked up): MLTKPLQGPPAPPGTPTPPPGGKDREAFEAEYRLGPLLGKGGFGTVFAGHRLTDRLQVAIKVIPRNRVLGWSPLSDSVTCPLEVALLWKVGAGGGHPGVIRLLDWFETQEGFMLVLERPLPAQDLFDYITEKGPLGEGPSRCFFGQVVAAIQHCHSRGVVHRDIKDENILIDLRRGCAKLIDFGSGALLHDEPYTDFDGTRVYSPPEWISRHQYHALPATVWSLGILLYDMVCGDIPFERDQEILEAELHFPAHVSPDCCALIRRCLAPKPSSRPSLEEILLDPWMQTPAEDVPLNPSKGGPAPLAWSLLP
# Chain of Casein kinase I isoform gamma-3 (Homo sapiens) (Q9Y6M4 whole entry, looked up, canonical isoform): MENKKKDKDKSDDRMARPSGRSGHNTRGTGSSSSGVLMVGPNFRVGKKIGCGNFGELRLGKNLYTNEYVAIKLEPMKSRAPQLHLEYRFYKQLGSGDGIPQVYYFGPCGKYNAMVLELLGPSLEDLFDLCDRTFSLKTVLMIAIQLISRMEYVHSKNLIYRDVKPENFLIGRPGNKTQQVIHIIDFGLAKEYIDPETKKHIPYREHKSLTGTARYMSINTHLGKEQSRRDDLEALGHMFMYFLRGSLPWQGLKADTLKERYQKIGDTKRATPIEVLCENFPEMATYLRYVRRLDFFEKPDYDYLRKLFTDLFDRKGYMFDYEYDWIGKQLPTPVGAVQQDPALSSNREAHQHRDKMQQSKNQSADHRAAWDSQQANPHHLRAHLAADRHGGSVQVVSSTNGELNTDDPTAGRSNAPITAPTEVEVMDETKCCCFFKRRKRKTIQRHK
# Chain of Ribosomal protein S6 kinase alpha-1 (Q15418 whole entry): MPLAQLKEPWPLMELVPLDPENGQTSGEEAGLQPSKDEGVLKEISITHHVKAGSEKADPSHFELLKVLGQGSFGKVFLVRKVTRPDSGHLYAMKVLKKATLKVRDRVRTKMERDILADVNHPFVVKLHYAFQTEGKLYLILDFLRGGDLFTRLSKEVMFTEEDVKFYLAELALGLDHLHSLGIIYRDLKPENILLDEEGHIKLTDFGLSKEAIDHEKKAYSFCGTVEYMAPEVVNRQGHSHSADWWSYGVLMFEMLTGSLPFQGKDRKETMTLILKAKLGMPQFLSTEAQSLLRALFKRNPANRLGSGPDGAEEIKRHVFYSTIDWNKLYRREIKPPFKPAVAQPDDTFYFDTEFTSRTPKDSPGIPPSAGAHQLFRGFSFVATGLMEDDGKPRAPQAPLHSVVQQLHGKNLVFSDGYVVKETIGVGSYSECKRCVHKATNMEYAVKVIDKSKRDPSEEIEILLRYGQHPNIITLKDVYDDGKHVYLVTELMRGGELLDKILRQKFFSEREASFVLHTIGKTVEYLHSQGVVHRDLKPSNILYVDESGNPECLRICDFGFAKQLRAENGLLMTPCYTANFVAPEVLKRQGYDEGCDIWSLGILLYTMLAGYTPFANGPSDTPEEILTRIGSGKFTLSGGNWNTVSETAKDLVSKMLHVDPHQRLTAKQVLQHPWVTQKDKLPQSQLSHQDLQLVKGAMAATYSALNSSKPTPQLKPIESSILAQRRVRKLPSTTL
smiles,measurement,setting,value
COc1cc(Nc2nc(C)cc(-c3cnn4nc(OC)ccc34)n2)cc(C(F)(F)F)c1,% of control,[1],95%
CC(=O)Nc1cccc(-n2c(=O)n(C3CC3)c(=O)c3c(Nc4ccc(I)cc4F)n(C)c(=O)c(C)c32)c1,% of control,[2],97%
Nc1cnc(N2CCc3cc(S(=O)(=O)Nc4c(F)cc(Cl)cc4F)cc(N4CCCC4=O)c32)nc1 [TP-020n],% of control,[3],78%
CCN(CC)CCCCNc1ncc2cc(-c3cc(OC)cc(OC)c3)c(NC(=O)NC(C)(C)C)nc2n1,% of control,[4],100%
CN(C(=O)c1cnn2cccnc12)c1cc2c(cc1N1CCOCC1)C(=O)N(C[C@@H](F)C(C)(C)O)C2,dTM,[5],0 K
CC[C@@H]1[C@H](F)C(=O)N[C@@H]1COc1nccc2cc(C(N)=O)c(OC)cc12 [ZIMLOVISERTIB],% of inhibition,[6],7.57%
CNC(=O)Nc1ccc(-c2nc(N3CC4CCC(C3)O4)c3cnn(C4CCC5(CC4)OCCO5)c3n2)cc1,% of control,[7],92%
Cc1cc(C)cc([C@@H]2c3cc(C)ccc3NC(=O)CN2C(=O)c2ccc(Br)s2)c1,% of inhibition,[8],-8%
C=CC(=O)Nc1cccc(C(=O)Nc2ccc(Nc3cc(-c4[nH]c(SC)nc4C)ccn3)cc2)c1,% of control,[9],94%
